Assay results taken from ChEMBL document CHEMBL3102801, “Synthesis and antiproliferative activity of new derivatives containing the polycyclic system 5,7:7,13-dimethanopyrazolo[3,4-b]pyrazolo[3',4':2,3]azepino[4,5-f]azocine” (Eur J Med Chem, 2014).
One block for each compound: values may come before it.

Assays:
Assay type in all cases: functional
SK-MEL-2 = test: Growth inhibition of human SK-MEL-2 cells after 48 hrs by sulforhodamine B assay; details: SK-MEL-2, 48 h
[1] = Growth inhibition of human OVCAR4 cells after 48 hrs by sulforhodamine B assay; details: OVCAR-4, 48 h
BT-549 = test: Growth inhibition of human BT549 cells after 48 hrs by sulforhodamine B assay; details: BT-549, 48 h
NCI-H322M = test: Growth inhibition of human NCI-H322M cells after 48 hrs by sulforhodamine B assay
SNB-19 = test: Growth inhibition of human SNB19 cells after 48 hrs by sulforhodamine B assay; details: SNB-19, 48 h
NCI-H23 = test: Growth inhibition of human NCI-H23 cells after 48 hrs by sulforhodamine B assay; details: NCI-H23, 48 h
UACC-62 = test: Growth inhibition of human UACC62 cells after 48 hrs by sulforhodamine B assay; details: UACC-62, 48 h
OVCAR-3 = test: Growth inhibition of human OVCAR3 cells after 48 hrs by sulforhodamine B assay; details: OVCAR-3, 48 h
Malme-3M = test: Growth inhibition of human MALME-3M cells after 48 hrs by sulforhodamine B assay
HT-29 = test: Growth inhibition of human HT-29 cells after 48 hrs by sulforhodamine B assay; details: HT-29, 48 h
[2] = Growth inhibition of human Hs 578T cells after 48 hrs by sulforhodamine B assay
[3] = Growth inhibition of human OVCAR5 cells after 48 hrs by sulforhodamine B assay; details: OVCAR-5, 48 h
PC-3 = test: Growth inhibition of human PC3 cells after 48 hrs by sulforhodamine B assay; details: PC-3, 48 h
TK-10 = test: Growth inhibition of human TK10 cells after 48 hrs by sulforhodamine B assay; details: TK-10, 48 h
MCF7 = test: Growth inhibition of human MCF7 cells after 48 hrs by sulforhodamine B assay; details: MCF7, 48 h
OVCAR-8 = test: Growth inhibition of human OVCAR8 cells after 48 hrs by sulforhodamine B assay; details: OVCAR-8, 48 h
A549 = test: Growth inhibition of human A549 cells after 48 hrs by sulforhodamine B assay; details: A549, 48 h
A498 = test: Growth inhibition of human A498 cells after 48 hrs by sulforhodamine B assay; details: A498, 48 h
[4] = Growth inhibition of human NCI-ADR-RES cells after 48 hrs by sulforhodamine B assay
HOP-62 = test: Growth inhibition of human HOP62 cells after 48 hrs by sulforhodamine B assay; details: HOP-62, 48 h
[5] = Growth inhibition of human HCC2998 cells after 48 hrs by sulforhodamine B assay; details: HCC 2998, 48 h
U-251 = test: Growth inhibition of human U251 cells after 48 hrs by sulforhodamine B assay; details: U-251, 48 h
T47D = test: Growth inhibition of human T47D cells after 48 hrs by sulforhodamine B assay
[6] = Growth inhibition of human UACC257 cells after 48 hrs by sulforhodamine B assay; details: UACC-257, 48 h
SK-OV-3 = test: Growth inhibition of human SKOV3 cells after 48 hrs by sulforhodamine B assay; details: SK-OV-3, 48 h
HCT-116 = test: Growth inhibition of human HCT116 cells after 48 hrs by sulforhodamine B assay; details: HCT-116, 48 h
SN12C = test: Growth inhibition of human SN12C cells after 48 hrs by sulforhodamine B assay
[7] = Growth inhibition of human RXF393 cells after 48 hrs by sulforhodamine B assay; details: RXF 393, 48 h
NCI-H460 = test: Growth inhibition of human NCI-H460 cells after 48 hrs by sulforhodamine B assay; details: NCI-H460, 48 h
NCI-H522 = test: Growth inhibition of human NCI-H522 cells after 48 hrs by sulforhodamine B assay; details: NCI-H522, 48 h
DU-145 = test: Growth inhibition of human DU145 cells after 48 hrs by sulforhodamine B assay; details: DU-145, 48 h
ACHN = test: Growth inhibition of human ACHN cells after 48 hrs by sulforhodamine B assay
MDA-MB-231 = test: Growth inhibition of human MDA-MB-231 cells after 48 hrs by sulforhodamine B assay; details: MDA-MB-231, 48 h
SK-MEL-28 = test: Growth inhibition of human SK-MEL-28 cells after 48 hrs by sulforhodamine B assay; details: SK-MEL-28, 48 h
MDA-MB-468 = test: Growth inhibition of human MDA-MB-468 cells after 48 hrs by sulforhodamine B assay; details: MDA-MB-468, 48 h
[8] = Growth inhibition of human SF539 cells after 48 hrs by sulforhodamine B assay; details: SF-539, 48 h
786-0 = test: Growth inhibition of human 786-0 cells after 48 hrs by sulforhodamine B assay; details: 786-0, 48 h
IGROV-1 = test: Growth inhibition of human IGROV1 cells after 48 hrs by sulforhodamine B assay; details: IGROV-1, 48 h
NCI-H226 = test: Growth inhibition of human NCI-H226 cells after 48 hrs by sulforhodamine B assay; details: NCI-H226, 48 h
SF-268 = test: Growth inhibition of human SF268 cells after 48 hrs by sulforhodamine B assay; details: SF-268, 48 h
HCT-15 = test: Growth inhibition of human HCT15 cells after 48 hrs by sulforhodamine B assay; details: HCT-15, 48 h
MDA-MB-435 = test: Growth inhibition of human MDA-MB-435 cells after 48 hrs by sulforhodamine B assay; details: MDA-MB-435, 48 h
[9] = Growth inhibition of human HOP92 cells after 48 hrs by sulforhodamine B assay; details: HOP-92, 48 h
[10] = Growth inhibition of human UO31 cells after 48 hrs by sulforhodamine B assay; details: UO-31, 48 h

GI50 (SK-MEL-2): 7.29 µM
GI50 (BT-549): 4.17 µM
GI50 (NCI-H322M): 22.4 µM
GI50 (NCI-H23): 18.7 µM
GI50 (OVCAR-3): 7.14 µM
GI50 (HT-29): 3.39 µM
GI50 (PC-3): 1.71 µM
GI50 (MCF7): 4.02 µM
GI50 (OVCAR-8): 4.19 µM
GI50 (A549): 3.29 µM
GI50 (U-251): 3.94 µM
GI50 (T47D): 2.44 µM
GI50 (SK-OV-3): 2.53 µM
GI50 (HCT-116): 2.09 µM
GI50 (NCI-H460): 3.69 µM
GI50 (NCI-H522): 0.891 µM
GI50 (DU-145): 23 µM
GI50 (ACHN): 6.13 µM
GI50 (MDA-MB-231): 6.35 µM
GI50 (SK-MEL-28): 1.52 µM
GI50 (MDA-MB-468): 4.76 µM
GI50 (786-0): 5.47 µM
GI50 (NCI-H226): 5.34 µM
SMILES: COc1ccc(-n2nc(C)c3c2N(C)C2(C)CC4C3(C)C3CC4(C2)N(C)c2c(c(C)nn2-c2ccc(OC)cc2)C3C)cc1 (stereo not drawn)
GI50 [1]: 5.95 µM
GI50 (SNB-19): 4.45 µM
GI50 (UACC-62): 12.6 µM
GI50 (Malme-3M): 6.34 µM
GI50 [2]: 4.27 µM
GI50 [3]: > 100 µM
GI50 (TK-10): 4.77 µM
GI50 (A498): 3.95 µM
GI50 [4]: 8.03 µM
GI50 (HOP-62): 3.1 µM
GI50 [5]: 9.65 µM
GI50 [6]: 2.34 µM
GI50 (SN12C): 8.07 µM
GI50 [7]: 2.92 µM
GI50 [8]: 63.5 µM
GI50 (IGROV-1): 19.5 µM
GI50 (SF-268): 4.08 µM

GI50 (SK-MEL-2): 6.78 µM
GI50 (BT-549): 5.55 µM
GI50 (HCT-15): 3.67 µM
GI50 (NCI-H322M): 33.8 µM
GI50 (NCI-H23): 7.99 µM
GI50 (OVCAR-3): 4.58 µM
GI50 (HT-29): 3.59 µM
GI50 (PC-3): 0.979 µM
GI50 (MCF7): 2.99 µM
GI50 (OVCAR-8): 5.41 µM
GI50 (A549): 2.37 µM
GI50 (U-251): 4.44 µM
GI50 (T47D): 2.13 µM
GI50 (SK-OV-3): 4.64 µM
GI50 (HCT-116): 3.72 µM
GI50 (NCI-H460): 3.35 µM
GI50 (NCI-H522): 2.12 µM
GI50 (DU-145): 8.7 µM
GI50 (ACHN): 4.78 µM
GI50 (MDA-MB-231): 4.55 µM
GI50 (SK-MEL-28): 2.26 µM
GI50 (MDA-MB-435): 4.12 µM
GI50 (MDA-MB-468): 2.9 µM
GI50 (786-0): 11.8 µM
GI50 (NCI-H226): 15.3 µM
SMILES: C=C1c2c(C)nn(-c3ccccc3)c2N(C)C23CC1C1(C)c4c(C)nn(-c5ccccc5)c4N(C)C(C)(CC12)C3 (stereo not drawn)
GI50 [1]: 4.49 µM
GI50 (SNB-19): 11 µM
GI50 (UACC-62): 4.38 µM
GI50 (Malme-3M): 4.19 µM
GI50 [2]: 5.67 µM
GI50 [3]: > 100 µM
GI50 (TK-10): 4.77 µM
GI50 (A498): 4.28 µM
GI50 [4]: 6.04 µM
GI50 (HOP-62): 7.15 µM
GI50 [5]: 6.22 µM
GI50 [6]: 2.87 µM
GI50 (SN12C): 9.92 µM
GI50 [7]: 2.04 µM
GI50 [8]: 26.7 µM
GI50 [9]: 0.549 µM
GI50 (IGROV-1): 11.9 µM
GI50 (SF-268): 7.52 µM

GI50 (SK-MEL-2): > 100 µM
GI50 (BT-549): > 100 µM
GI50 (NCI-H322M): > 100 µM
GI50 (NCI-H23): > 100 µM
GI50 (PC-3): 0.591 µM
GI50 (MCF7): 3.46 µM
GI50 (T47D): 2.64 µM
GI50 (SK-OV-3): 24.1 µM
GI50 (NCI-H522): 3.88 µM
GI50 (MDA-MB-231): > 100 µM
GI50 (SK-MEL-28): 3.14 µM
GI50 (786-0): > 100 µM
GI50 (NCI-H226): > 100 µM
SMILES: Cc1nn(-c2ccccc2)c2c1C(C)C1CC3(CC4(C)CC3C1(C)c1c(C)nn(-c3ccccc3)c1N4C)N2C (stereo not drawn)
GI50 [1]: 8.66 µM
GI50 (SNB-19): > 100 µM
GI50 (Malme-3M): > 100 µM
GI50 [2]: > 100 µM
GI50 [3]: > 100 µM
GI50 (TK-10): > 100 µM
GI50 [10]: > 100 µM
GI50 (A498): > 100 µM
GI50 [4]: > 100 µM
GI50 (HOP-62): 18.3 µM
GI50 [5]: > 100 µM
GI50 (SN12C): > 100 µM
GI50 [7]: 3.41 µM
GI50 [8]: > 100 µM
GI50 [9]: 0.792 µM
GI50 (IGROV-1): > 100 µM
GI50 (SF-268): > 100 µM
